Reference: PubChem BioAssay (NCI)
“And” between values parts separate entries of the source, which are not always exact repeats. Identical values can stand only once.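 48-hour exposure; five concentrations; linearly interpolated endpoints. Abbreviation: GI50, concentration required for 50% inhibition of growth. TGI: concentration producing complete growth inhibition.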

How the values were obtained:
Assay in all cases: DTP human tumour cell line panel, 48 h
A498 renal = tested on: A498 renal
CCRF-CEM leukemia = tested on: CCRF-CEM leukemia
HL-60(TB) leukemia = tested on: HL-60(TB) leukemia
HOP-62 NSCLC = tested on: HOP-62 NSCLC
K-562 leukemia = tested on: K-562 leukemia
PC-3 prostate = tested on: PC-3 prostate
SF-268 CNS = tested on: SF-268 CNS
SW-620 colon = tested on: SW-620 colon
UACC-62 melanoma = tested on: UACC-62 melanoma
NCI/ADR-RES ovarian = tested on: NCI/ADR-RES ovarian

SMILES | GI50 (A498 renal) [nM] | TGI (A498 renal) | GI50 (CCRF-CEM leukemia) [nM] | TGI (CCRF-CEM leukemia) [µM] | GI50 (HL-60(TB) leukemia) | TGI (HL-60(TB) leukemia) [µM] | GI50 (HOP-62 NSCLC) [nM] | TGI (HOP-62 NSCLC) | GI50 (K-562 leukemia) [nM] | TGI (K-562 leukemia) [µM] | GI50 (PC-3 prostate) [nM] | TGI (PC-3 prostate) [µM] | GI50 (SF-268 CNS) [nM] | TGI (SF-268 CNS) [µM] | GI50 (SW-620 colon) [nM] | TGI (SW-620 colon) | GI50 (UACC-62 melanoma) [nM] | TGI (UACC-62 melanoma) [µM] | GI50 (NCI/ADR-RES ovarian) [nM] | TGI (NCI/ADR-RES ovarian)
COc1cc2nc(-c3cnc(N(C)C)nc3)nc(NC3CCN(Cc4ccccc4)CC3)c2cc1OC | 1570 | 2.94 µM | 707 | 3.6 | 1510 nM | 3.75 | 1690 | 3.48 µM | 369 | 1.95 | 1460 | 3.09 | 1730 | 3.72 | 442 | 2 µM | 1730 | 3.29 |  | 
O=C(O)C(CP(=O)(O)O)=C(Cl)Cl |  |  |  | > 100 |  | > 100 |  | > 100 µM |  |  |  |  |  | > 100 |  | > 100 µM |  | > 100 |  | 
CC(=O)[CH-]C(=O)c1ccccc1.CC(=O)[CH-]C(=O)c1ccccc1.CC[O-].CC[O-].[Zr+4] |  |  | 69700 | > 100 | > 100000 nM | > 100 | > 100000 | > 100 µM | > 100000 | > 100 |  |  | > 100000 | > 100 | > 100000 | > 100 µM | > 100000 | > 100 |  | 
COc1cc(/C=C2/C(=O)N(C(=O)OC(C)C)C(Cc3cc(OC)c(OC)c(C)c3OC)C(=O)N2Cc2ccccc2)c(OC)c(C)c1OC (stereo unspecified) |  | > 100 µM |  | > 100 |  | > 100 |  | > 100 µM |  | > 100 |  |  |  | > 100 |  | > 100 µM |  | > 100 |  | 
Cc1c(Cl)ccc2c1NC(=O)C2(O)C(C(=O)c1ccccc1)c1ccccc1 (stereo unspecified) |  | 70.1 µM |  | 73.8 |  | 39.5 |  | > 100 µM |  | > 100 |  |  |  | > 100 |  | > 100 µM |  | 46 |  | 
COc1ccc(C(=O)C(c2ccc(OC)cc2)C2(O)C(=O)Nc3ccccc32)cc1 (stereo unspecified) |  |  |  | > 100 |  | > 100 |  |  |  | > 100 |  |  |  | > 100 |  | > 100 µM |  | > 100 |  | 
O=S1c2ccccc2N=C(c2ccc3ccccc3c2)CC1C1=CC=CCC1 (stereo unspecified) |  |  |  | 23.6 |  | 36.8 |  | 40.4 µM |  | 27.4 |  |  |  | > 100 |  | 36.7 µM |  | 34.5 |  | 
Cn1ccnc1C(=O)/C=C/c1ccc(C(=O)Nc2ccc(Cl)cc2)cc1 | 661 | > 33.3 µM | 783 | 2.71 | 669 nM | 1.97 | 1040 | > 33.3 µM | 646 | > 33.3 | 951 | 19 | 1370 | > 33.3 |  |  | 1550 | 7.59 | 1060 | > 33300 nM
COc1cc(/C=C2\[C@H]3c4c(c(OC)c(C)c(OC)c4OC)C[C@@H](C(=O)N2Cc2ccccc2)N3C(=O)OCC(C)C)c(OC)c(C)c1OC |  | > 100 µM |  | > 100 |  | > 100 |  | > 100 µM |  | > 100 |  |  |  | > 100 |  | > 31.6 µM |  | > 100 |  | 
Cc1cc(O)cc2oc(=O)c3c(O)cc(O)cc3c12 |  | > 100 µM |  | > 100 |  | 46.5 |  | 50.9 µM |  | > 100 |  |  |  | 76.5 |  | 49.9 µM |  | 81 |  | 
COc1cc(C2=NN(C)C(c3ccc([N+](=O)[O-])o3)C2)cc(OC)c1OC (stereo unspecified) |  | > 100 µM |  | 72 |  | > 100 |  | > 100 µM |  | > 100 |  |  |  | > 100 |  | 30.6 µM |  | > 100 |  | 
CN(C)CCNC(=O)c1cc2ccccc2c2nc3ccccc3nc12 |  | 2.4 µM |  |  |  |  |  | 5 µM |  | 1.96 |  |  |  | 2.02 |  |  |  | 7.3 |  | 
Cc1cc(NS(=O)(=O)c2ccc(N=Nc3cc(N=Nc4ccc(S(=O)(=O)Nc5cc(C)nc(C)n5)cc4)c4c(NC(=O)C(Cl)Cl)cccc4c3OC(=O)C(Cl)Cl)cc2)nc(C)n1 (tested in a mixture with another compound) |  | 71.1 µM |  |  |  | 52.4 |  | 78.8 µM |  | > 100 |  |  |  | 98.3 |  | 40.4 µM |  | 51.4 |  | 
COc1ccc2c(=O)c(C)c(-c3ccccc3)oc2c1CN(C)C |  | > 100 µM |  | > 100 | > 100000 nM and 34600 nM | > 100 |  | > 100 µM |  | > 100 |  |  |  | > 100 |  | > 100 µM |  | > 100 |  | 
CCOC(=O)C12CCCC1(O)N(NC(=O)c1ccccc1)C(C)=C2C(=O)OC (stereo unspecified) |  | > 100 µM |  | > 100 |  | > 100 |  | > 100 µM |  | > 100 |  |  |  | > 100 |  | > 100 µM |  | > 100 |  | 
C/C(=C\C(C)COCc1ccccc1)[C@H](COCc1ccccc1)OCc1ccccc1 (stereo partly specified) |  | > 100 µM |  | > 100 |  |  |  | > 100 µM |  | > 100 |  |  |  | > 100 |  | > 100 µM |  | > 100 |  | 
Cc1ccc(NC(=O)C(=O)C2C(=O)N(c3ccccc3)N=C2N)cc1C (stereo unspecified) |  | > 100 µM |  | > 100 |  | > 100 |  | > 100 µM |  | > 100 |  |  |  | > 100 |  | > 100 µM |  | > 100 |  | 
COc1ccc(N(CC(=O)NCCC[Te]c2ccccc2)C(=O)c2ccccc2)cc1 | 2170 | 5.35 µM |  |  | 2120 nM | 5.73 | 2410 | 5.32 µM | 5170 | > 100 | 2680 | 12.6 | 3190 | 10.8 | 3870 | 14.4 µM | 2530 | 7.5 | 3230 | 10800 nM
O=S(=O)(/C=C/c1ccc(Cl)cc1Cl)Cc1ccccc1CS(=O)(=O)/C=C/c1ccc(Cl)cc1Cl |  | > 100 µM |  | > 100 |  |  |  | > 100 µM |  | > 100 |  |  |  | > 100 |  | > 100 µM |  | > 100 |  | 
O=c1cc(-c2cccc(C(F)(F)F)c2)[nH]c2cc3c(cc12)OCO3 | 1470 | 49.9 µM and 7 µM |  |  |  | 0.705 | 517 | 16.8 µM and 22.5 µM |  | > 100 |  | > 100 |  |  | 326 | 50 µM and > 100 µM | 356 |  | 251 | 2140 nM and 829 nM
CCOC(C)C(/C=N/NC(N)=S)=NNC(N)=S (stereo unspecified) |  | 85.2 µM |  | > 100 |  | > 100 |  | > 100 µM |  | > 100 |  |  |  | > 100 |  | > 100 µM |  | > 100 |  | 
O=c1cccccc1NCCOCCNc1cccccc1=O |  | > 100 µM |  | > 100 |  | > 100 |  | > 100 µM |  | > 100 |  |  |  | > 100 |  | > 100 µM |  | > 100 |  | 
